Reference: US5446186A, “Structure and synthesis of nitrophenyl-EGTA, a caged calcium, intermediates thereof and a method of producing a high photochemical yield of liberated calcium” (priority 1993, dated 1995)
“Also recorded” adds a separate entry of the source. Read-outs that look alike come from different tables or passages of the source. Blank lines part the entries; values can stand above or below the compound they belong to.

Columns and labels:
[1] = Quantum yield of photolysis by HPLC, comparison to caged-Pi; assay type: physicochemical
Method: The filtered output of 1000-W high pressure Hg arc lamp was used to photolyze solutions of NP-EGTA (1.77 mM) or caged-Pi (3.12 mM) in buffer (40 mM hepes, 100 mM KCl, pH 7.2) with absorbances of 0.0105 in a cuvette with a pathlength of […]. Each solution also contained inosine (100 mM) as the internal standard.
On the left, t=0 s, on the fight, t=15 s.
On the left, t=0 s, on the fight, t=15 s. HPLC was performed using a Novapak C18 reverse-phase HPLC column and two Waters 501 pumps fitted with a Waters 680 automated control module delivering 2 ml/min. Pump A delivered […] and pump B 80% acetonitrile/0.052% TFA. The gradient was for 0-5 min 100% A, from 5-20 min a linear change to 80% A, and from 20-40 min 80% A. The eluent was monitored by a Waters 990 photodiode array detector and chromatograms are shown at 260 nm.
The quantum yield of NP-EGTA photolysis was determined by comparison to that of caged-Pi which has previously been determined to have a quantum yield of photolysis of 0.54 (17). The time-course of disappearance of the caged compounds was followed by HPLC analysis of the reaction mixture (FIG. 2). The amount of NP-EGTA or caged-Pi remaining in the reaction mixture was normalized for each HPLC analysis by comparison to a photochemically inert internal standard, inosine (100 mM). […] Under the same conditions (i.e. flux density), 10.3% of NP-EGTA was photolyzed when saturating Ca^a+ (3.0 mM) was present (FIG. 2b). Thus, the quantum yield of photolysis of the NP-EGTA:Ca^2+ complex is 0.23.

[2] = Ca^2+ affinity by titration of chelator with Ca^2+, fluo-3 emission, Scatchard analysis; assay type: binding; conditions: 40 mM hepes, 100 mM KCl, pH 7.2, 20° C.; before photolysis
Excerpt: The affinity of NP-EGTA for Ca^2+ was obtained by titration of the chelator with incremental additions of Ca^2+. […] For any chelator:Ca^a+ complex to function effectively as a caged Ca, the pre-photolysis affinity should be high for two reasons. First, it is crucial that the resting or pre-photolysis [Ca^2+ ] is very low, i.e. that it is non-activating or sub-threshold for the biological system being investigated. The Kd^Ca and the total amounts of Ca^2+ and chelator determine [Ca^2+ ]free. Secondly, the percentage of chelator loaded with Ca^2+ before photolysis is important as this is a factor which determines how much Ca^2+ is liberated upon photolysis, as Ca^2+ can only be photoreleased if it is complexed. Also, if the chelator is frilly loaded, then the photoreleased Ca^2+ will not be rebound by unphotolysed, unloaded chelator, i.e. step increases rather than pulses of Ca^2+ will be produced (see ref. 19, 20).

[3] = Mg^2+ affinity by titration of Mg^2+-indicator mag-fura-red without and with NP-EGTA; assay type: binding; conditions: 40 mM hepes, 100 mM KCl, pH 7.2, 25° C.; absorbance at 480 nm
Method: The Mg^2+ affinity of NP-EGTA was determined by titration of the Mg^2+ -indicator, mag-fura-red (20 μM) without and with NP-EGTA (10 mM) in buffer (40 mM hepes, 100 mM KCl, pH=7.2) at 25° C.

[4] = Selectivity for Ca^2+ versus Mg^2+: fluo-3 signal on addition of 1 mM Mg^2+ and on irradiation; assay type: binding
[5] = Absorption and fluorescence spectral properties; assay type: physicochemical
Method: FIG. 1 is an absorption spectra of nitrophenyl-EGTA. The absorption spectrum of a solution of NP-EGTA ([…]) in buffer (40 mM hepes, 100 mM KCl, pH 7.2) is shown (spectrum a). The spectrum is altered (spectrum b) on addition of saturating Ca^2+ (0.20 mM). Photolysis of this sample for 300 s with the filtered output of a 1-kW Hg are lamp yielded photoproducts with spectrum (c).
The absorption spectra of NP-EGTA without and with saturating Ca^2+ are shown in FIG. 1(a) and (b) respectively. The extinction coefficients at 260 and 347 nm are 5.52×10^3 M^-1 cm^-1 and 974 M^-1 cm^-1 respectively in Ca^2+ -free buffer (40 mM hepes, 100 mM KCl, pH 7.2). Saturating Ca^2+ produces a 10% decrease in the absorption at 260 nm. The absorption spectrum changes to that shown in FIG. 1(c) upon complete photolysis in the presence of Ca^2+. […] In fact, fluo-3 saturated with Ca^2+ is about 2.1×10s-fold more fluorescent at 530 nm than NP-EGTA is at 400 nm.

[6] = system: chemically skinned psoas fibers from rabbit skeletal muscle; experiment: Ca-induced contraction of chemically skinned skeletal muscle fibers after laser flash photolysis; assay type: cell-based; conditions: for time to achieve half-maximal tension: 15° C., 347 nm ruby laser flash, NP-EGTA:Ca^2+ 1.9 mM at 1 mM free Mg^2+, or DM-nitrophen:Ca^2+ 1.4 mM at 40 μM free Mg^2+; for tension transients, NP-EGTA compared with DM-nitrophen: photoreleased Ca^2+; for maximal contraction / full tension after laser flash: single 347 nm ruby laser flash, free Mg^2+ 1 mM (NP-EGTA), 40 μM (DM-nitrophen); for Ca^2+ release as rate-limiting step for contraction: skinned skeletal muscle fiber
Excerpt: The arrow indicates the time of a pulse from a frequency-doubled ruby laser (347 nm). For DM-nitrophen, before photolysis, the muscle-bathing solution contained (mM): Tes (100), HDTA (27.91), ATPNa2 (3.0), creatine phosphate (20), glutathione (10), DM-nitrophen (2.0), MgCl2 (1.19), CaCl2 (1.60). In the NP-EGTA solution there was (mM): Tes (100), HDTA (25.35), ATPNa2 (5.50), creatine phosphate (20), glutathione (10), NP-EGTA (2.1), MgCl2 (7.0), CaCl2 (1.9). The pH of both solutions was 7.0; the ionic strength was 0.2M. Tension development was measured as in Ref. 24.
Photolysis of nitrophenyl-EGTA:Ca^2+ and DM-nitrophen:Ca^2+ complexes were used to release Ca^2+ rapidly in chemically skinned psoas fibers from rabbit skeletal muscle. […] The time to achieve half-maximal tension using NP-EGTA was 17.9 ms and 18.1 ms with DM-nitrophen at 15° C. (see FIG. 4). […] It is interesting that there are no major effects, on the rate of the development of tension nor on the maximal contraction, due to a change in [Mg]free from 40 μM to 1 mM in these experiments.

[7] = pH 7.2; before photolysis; read-out: Kd for Ca^2+ (comparison chelators); cited from earlier work
[8] = DM-nitrophen:Ca^2+ complex; cited from earlier work
[9] = Ca^2+-free buffer, 40 mM hepes, 100 mM KCl, pH 7.2

percent photolyzed ([1]; after 15 s, caged-Pi 3.12 mM, 0.25 min): 15.1%
Structure (SMILES): CC(OP(=O)(O)O)c1ccccc1[N+](=O)[O-] (centres unmarked) [caged-Pi, 1-(o-nitrophenyl)-ethyl phosphate, reference compound]

Structure (SMILES): Cc1ccc(N(CC(=O)O)CC(=O)O)c(OCCOc2cc(C(O)c3cc4c(cc3[N+](=O)[O-])OCO4)ccc2N(CC(=O)O)CC(=O)O)c1 (centres unmarked) [nitr-5]
Ca^2+ released on 50% photolysis (1.0 mM Ca^2+ present): 0.80 mM | prephotolysis free [Ca^2+] (1.0 mM Ca^2+ present): 0.145 mM

Kd [3]: 8800 µM | Kd for Mg^2+ [3]: in the mM range | quantum yield of photolysis, in the absence of Ca^2+ ([1]; Ca^2+-free, pH 7.2): 0.20 | percent photolyzed with Ca^2+ ([1]; after 15 s, saturating Ca^2+ (3.0 mM), 0.25 min, 1770 µM): 10.3% | percent photolyzed without Ca^2+ ([1]; same flux density, Ca^2+-free, 1770 µM): 8.91% | quantum yield of photolysis, in the presence of Ca^2+ ([1]; saturating Ca^2+ (3.0 mM), pH 7.2): 0.23 | photolysis efficiency relative to DM-nitrophen ([1]; versus DM-nitrophen (ref. 4)): the same as that of DM-nitrophen | photolysis efficiency relative to nitr-5 or nitr-7 ([1]; versus nitr-5 or nitr-7 (ref. 2)): ~6 times | fluorescence emission [5]: virtually non-fluorescent | extinction coefficient at 260 nm [5, 9]: 5520 M⁻¹ cm⁻¹ | extinction coefficient at 347 nm [5, 9]: 974 M⁻¹ cm⁻¹ | decrease in absorption at 260 nm on saturating Ca^2+ ([5]; saturating Ca^2+): 10%
Structure (SMILES): O=C(O)CN(CCOCCOCC(c1ccccc1[N+](=O)[O-])N(CC(=O)O)CC(=O)O)CC(=O)O (centres unmarked) [NP-EGTA]
Kd [2]: 0.08 µM | effect of 1 mM Mg^2+ on fluo-3 signal ([4]; 0.655 mM NP-EGTA with 0.55 mM Ca^2+): no effect on the fluo-3 signal; also recorded: no increase in the fluo-3 signal | Ca^2+ liberation on irradiation in presence of Mg^2+ (fluo-3 signal) ([4]; frequency-doubled ruby laser, 347 nm): liberates Ca^2+ from the NP-EGTA:Ca^2+ complex | time to achieve half-maximal tension [6]: 17.9 ms | time to achieve half-maximal tension ([6]; listed as nitrophenyl-EGTA): 18 ms | tension transients, NP-EGTA compared with DM-nitrophen [6]: identical, rapid tension transients | maximal contraction / full tension after laser flash [6]: releases sufficient Ca^2+ to generate full tension in the muscle fiber | maximal contraction / full tension after laser flash ([6]; listed as nitrophenyl-EGTA): maximal contraction after a single flash | Ca^2+ release as rate-limiting step for contraction [6]: also not rate-limiting

Structure (SMILES): COc1cc(C(CN(CC(=O)O)CC(=O)O)N(CC(=O)O)CC(=O)O)c([N+](=O)[O-])cc1OC (centres unmarked) [DM-nitrophen, reference compound]
time to achieve half-maximal tension [6]: 18.1 ms | tension transients, NP-EGTA compared with DM-nitrophen [6]: identical, rapid tension transients | maximal contraction / full tension after laser flash [6]: Rapid development of maximal tension | Ca^2+ release as rate-limiting step for contraction [6]: not rate-limiting | Kd [7]: 0.005 µM | Ca^2+ release t1/2 [8]: ≤ 180 microseconds

Structure (SMILES): Cc1ccc(N(CC(=O)O)CC(=O)O)c(O[C@@H]2CCC[C@@H]2Oc2cc(C(O)c3cc4c(cc3[N+](=O)[O-])OCO4)ccc2N(CC(=O)O)CC(=O)O)c1 (some centres unmarked) [nitr-7]
Ca^2+ released on 50% photolysis ([chelator]:[Ca^2+] 2 mM:1.50 mM): 3 mM

Structure (SMILES): O=C(O)CN(CCOCCOCCN(CC(=O)O)CC(=O)O)CC(=O)O [EGTA, ethylenebis(oxyethylenenitrilo)tetraacetic acid]
Kd [7]: 0.15 µM
